According to patent US20250302080A1, “SWEETNESS AND/OR FLAVOR ENHANCER” (AJINOMOTO CO., INC., priority 2022, published 2025):

Key:
[1] = Sensory evaluation of sweetness intensity in RebA solution, four reference samples (Experimental Examples 17-19); details: for concentration at which a sweetness-enhancing effect was confirmed: added alone, 3.0 points or more
Experimental: A negative control RebA solution (0.073 wt % RebA solution) was prepared by dissolving RebA in filtered water.
(§1) A sensory evaluation of sweetness intensity was performed for each sample by a panel of four experts according to the following evaluation criteria.
Sweetness intensity was evaluated by 0.0 to 10.0 points based on the following reference samples (negative control (hereinafter referred to as NC) (0.0 point); reference 1 (hereinafter referred to as R1) (3.2 points), reference 2 (hereinafter referred to as R2) (5.0 points); reference 3 (hereinafter referred to as R3) (10.0 points)). The average score (rounded to two decimal places) of each expert panelist was calculated. An average score of 3.0 points or more was considered to be functional. • NC (0.0 point): 0.073 wt % RebA solution (solvent: filtered water) • R1 (3.2 points): 0.073 wt % RebA solution (solvent: filtered water)+decanoic acid (10 ppb) • R2 (5.0 points): 0.077 wt % RebA solution (solvent: filtered water) • R3 (10.0 points): 0.080 wt % RebA solution (solvent: filtered water)
A sensory evaluation of sweetness intensity was performed for each sample by a panel of four experts according to the same evaluation criteria as in Experimental Example 17.

[2] = Sensory evaluation of sweetness intensity in RebM solution (Experimental Examples 20-21)
Experimental: A negative control RebM solution (0.063 wt % RebM solution) was prepared by dissolving RebM in filtered water.
as §1
Sweetness intensity was evaluated by 0.0 to 10.0 points based on the following reference samples (negative control (hereinafter referred to as NC) (0.0 point); reference 1 (hereinafter referred to as R1) (3.0 points), reference 2 (hereinafter referred to as R2) (5.0 points); reference 3 (hereinafter referred to as R3) (10.0 points)). The average score (rounded to two decimal places) of each expert panelist was calculated. An average score of 3.0 points or more was considered to be functional. • NC (0.0 point): 0.063 wt % RebM solution (solvent: filtered water) • R1 (3.0 points): 0.063 wt % RebM solution (solvent: filtered water)+dodecanoic acid (1 ppb) • R2 (5.0 points): 0.066 wt % RebM solution (solvent: filtered water) • R3 (10.0 points): 0.069 wt % RebM solution (solvent: filtered water)
A sensory evaluation of sweetness intensity was performed for each sample by a panel of four experts according to the same evaluation criteria as in Experimental Example 20.

[3] = Sensory evaluation of sweetness intensity in aspartame solution, four reference samples (Experimental Example 22)
Experimental: A negative control aspartame solution (0.063 wt % aspartame solution) was prepared by dissolving aspartame in filtered water.
as §1
Sweetness intensity was evaluated by 0.0 to 10.0 point based on the following reference samples (negative control (hereinafter referred to as NC) (0.0 point); reference 1 (hereinafter referred to as R1) (3.2 points), reference 2 (hereinafter referred to as R2) (5.0 points); reference 3 (hereinafter referred to as R3) (10.0 points)). The average score (rounded to two decimal places) of each expert panelist was calculated. An average score of 3.0 points or more was considered to be functional. • NC (0.0 point): 0.063 wt % aspartame solution (solvent: filtered water) • R1 (3.2 points): 0.063 wt % aspartame solution (solvent: filtered water)+decanoic acid (10 ppb) • R2 (5.0 points): 0.066 wt % aspartame solution (solvent: filtered water) • R3 (10.0 points): 0.069 wt % aspartame solution (solvent: filtered water)

[4] = Sensory evaluation of sweetness intensity in sucralose solution (Experimental Examples 23-24); details: for sweetness intensity: average score; for concentration at which a sweetness-enhancing effect was confirmed: sucralose solution, added alone, 3.0 points or more
Experimental: A negative control sucralose solution (0.0140 wt % sucralose solution) was prepared by dissolving sucralose in filtered water.
as §1
Sweetness intensity was evaluated by 0.0 to 10.0 point based on the following reference samples (negative control (hereinafter referred to as NC) (0.0 point); reference 1 (hereinafter referred to as R1) (3.0 points), reference 2 (hereinafter referred to as R2) (5.0 points); reference 3 (hereinafter referred to as R3) (10.0 points)). The average score (rounded to two decimal places) of each expert panelist was calculated. An average score of 3.0 points or more was considered to be functional. • NC (0.0 point): 0.0140 wt % sucralose solution (solvent: filtered water) • R1 (3.0 points): 0.0164 wt % sucralose solution (solvent: filtered water) • R2 (5.0 points): 0.0180 wt % sucralose solution (solvent: filtered water) • R3 (10.0 points): 0.0220 wt % sucralose solution (solvent: filtered water)
A sensory evaluation of sweetness intensity was performed for each sample by a panel of four experts according to the same evaluation criteria as in Experimental Example 23.

[5] = added alone at 0.001 ppb to 0.0140 wt % sucralose solution
[6] = added alone at 0.01 ppb to 0.0140 wt % sucralose solution
[7] = added alone at 0.1 ppb to 0.0140 wt % sucralose solution
[8] = added alone at 1 ppb to 0.0140 wt % sucralose solution
[9] = added alone at 10 ppb to 0.0140 wt % sucralose solution
[10] = added alone at 100 ppb to 0.0140 wt % sucralose solution
[11] = added alone at 1000 ppb to 0.0140 wt % sucralose solution
[12] = added alone at 10000 ppb to 0.0140 wt % sucralose solution

SMILES	sweetness intensity ([1]; acid added alone at 0.001 ppb)	sweetness intensity ([1]; acid added alone at 0.01 ppb)	sweetness intensity ([1]; acid added alone at 0.1 ppb)	sweetness intensity ([1]; acid added alone at 1 ppb)	sweetness intensity ([1]; acid added alone at 10 ppb)	sweetness intensity ([1]; acid added alone at 100 ppb)	sweetness intensity ([1]; acid added alone at 1000 ppb)	sweetness intensity ([1]; acid added alone at 10000 ppb)	concentration at which a sweetness-enhancing effect was confirmed [1]	sweetness intensity ([2]; acid added alone at 0.001 ppb)	sweetness intensity ([2]; acid added alone at 0.01 ppb)	sweetness intensity ([2]; acid added alone at 0.1 ppb)	sweetness intensity ([2]; acid added alone at 1 ppb)	sweetness intensity ([2]; acid added alone at 10 ppb)	sweetness intensity ([2]; acid added alone at 100 ppb)	sweetness intensity ([2]; acid added alone at 1000 ppb)	sweetness intensity ([2]; acid added alone at 10000 ppb)	sweetness intensity ([3]; acid added alone at 0.001 ppb)	sweetness intensity ([3]; acid added alone at 0.01 ppb)	sweetness intensity ([3]; acid added alone at 0.1 ppb)	other results
CCCCCCCCCCCC(=O)O [dodecanoic acid]	0.6 points	1.3 points	2.3 points	4.2 points	5.0 points	5.7 points	6.0 points	6.0 points	≥ 1 ppb	0.8 points	1.7 points	2.5 points	3.0 points	5.0 points	4.6 points	4.7 points	4.8 points	1.7 points	2.2 points	2.7 points	sweetness intensity ([3]; acid added alone at 1 ppb): 3.3 points; sweetness intensity ([3]; acid added alone at 10 ppb): 4.2 points; sweetness intensity ([3]; acid added alone at 100 ppb): 4.9 points; sweetness intensity ([3]; acid added alone at 1000 ppb): 5.5 points; sweetness intensity ([3]; acid added alone at 10000 ppb): 6.1 points; sweetness intensity [4, 5]: 1.0 points; sweetness intensity [4, 6]: 1.6 points; sweetness intensity [4, 7]: 2.0 points; sweetness intensity [4, 8]: 2.5 points; sweetness intensity [4, 9]: 3.0 points; sweetness intensity [4, 10]: 3.5 points; sweetness intensity [4, 11]: 3.9 points; sweetness intensity [4, 12]: 3.7 points; concentration at which a sweetness-enhancing effect was confirmed [4]: ≥ 10 ppb
CCCCCCCCC(=O)O [nonanoic acid]	0.7 points	1.0 points	1.8 points	2.8 points	3.3 points	4.0 points	4.8 points	4.4 points	≥ 10 ppb	0.9 points	1.4 points	2.1 points	2.8 points	3.3 points	4.1 points	4.8 points	4.8 points	0.8 points	2.0 points	2.7 points	sweetness intensity ([3]; acid added alone at 1 ppb): 3.4 points; sweetness intensity ([3]; acid added alone at 10 ppb): 4.5 points; sweetness intensity ([3]; acid added alone at 100 ppb): 4.9 points; sweetness intensity ([3]; acid added alone at 1000 ppb): 5.4 points; sweetness intensity ([3]; acid added alone at 10000 ppb): 5.9 points; sweetness intensity [4, 5]: 1.3 points; sweetness intensity [4, 6]: 1.8 points; sweetness intensity [4, 7]: 2.4 points; sweetness intensity [4, 8]: 3.0 points; sweetness intensity [4, 9]: 3.5 points; sweetness intensity [4, 10]: 3.9 points; sweetness intensity [4, 11]: 4.3 points; sweetness intensity [4, 12]: 4.2 points; concentration at which a sweetness-enhancing effect was confirmed [4]: ≥ 1 ppb
CCCCCCCC(=O)O [octanoic acid]	0.3 points	0.4 points	0.9 points	1.3 points	2.0 points	2.6 points	3.7 points	4.0 points	≥ 1000 ppb	1.1 points	1.8 points	2.7 points	3.3 points	4.3 points	4.3 points	4.4 points	4.3 points	0.6 points	1.4 points	2.2 points	sweetness intensity ([3]; acid added alone at 1 ppb): 2.9 points; sweetness intensity ([3]; acid added alone at 10 ppb): 3.4 points; sweetness intensity ([3]; acid added alone at 100 ppb): 3.9 points; sweetness intensity ([3]; acid added alone at 1000 ppb): 4.3 points; sweetness intensity ([3]; acid added alone at 10000 ppb): 4.6 points; concentration at which a sweetness-enhancing effect was confirmed ([3]; added alone, 3.0 points or more): ≥ 10 ppb; sweetness intensity [4, 5]: 0.5 points; sweetness intensity [4, 6]: 1.3 points; sweetness intensity [4, 7]: 1.8 points; sweetness intensity [4, 8]: 2.3 points; sweetness intensity [4, 9]: 2.9 points; sweetness intensity [4, 10]: 3.3 points; sweetness intensity [4, 11]: 4.0 points; sweetness intensity [4, 12]: 4.5 points
CCCCCCCCCCC(=O)O [undecanoic acid]	0.3 points	1.9 points	3.5 points	4.5 points	5.4 points	6.0 points	6.2 points	5.7 points	≥ 0.1 ppb	1.3 points	2.0 points	2.4 points	2.9 points	3.3 points	3.9 points	4.4 points	4.1 points	1.3 points	2.1 points	2.8 points	sweetness intensity ([3]; acid added alone at 1 ppb): 3.2 points; sweetness intensity ([3]; acid added alone at 10 ppb): 3.8 points; sweetness intensity ([3]; acid added alone at 100 ppb): 4.1 points; sweetness intensity ([3]; acid added alone at 1000 ppb): 4.7 points; sweetness intensity ([3]; acid added alone at 10000 ppb): 5.5 points; sweetness intensity [4, 5]: 0.9 points; sweetness intensity [4, 6]: 1.3 points; sweetness intensity [4, 7]: 1.7 points; sweetness intensity [4, 8]: 2.1 points; sweetness intensity [4, 9]: 2.8 points; sweetness intensity [4, 10]: 3.1 points; sweetness intensity [4, 11]: 3.4 points; sweetness intensity [4, 12]: 3.2 points
